The target in one assay is T1, thrombin mutant R93A (Homo sapiens, UniProt P00734, R452A).
T1 construct: a group of thrombin mutants containing replacement of either Arg or Lys present in exosite 2 to Ala
In words: Inhibition of thrombin mutant R93A. In kind it is biochemical. The protocol:
(§1) Chromogenic substrate hydrolysis assay was used to measure potency of inhibition, as previously reported. The assay was performed using Flexstation III (Molecular Devices, Sunnyvale, CA) by monitoring substrate hydrolysis at 405 nm. For thrombin and its mutants, 180 μL of buffer (20 mM Tris-HCl, 100 mM NaCl, 2.5 mM CaCl2, 0.1% (polyethylene glycol) PEG 8000, pH 7.4) was added to each well followed by 5 μL of 240 nM thrombin and 10 μL of sulfated coumarin in DMSO to give 0.002 to 250 μM final concentration (or 10 μL of DMSO alone). After incubation for 10 min at 25 °C, 5 μL of 2 mM Spectrozyme TH was added to each well simultaneously and allowed to react for 60 seconds at 25 °C while simultaneously monitoring the reaction to obtain the rate of increase in A405. Identical experimental conditions were used for reactions in the presence of antithrombin, except for 100 nM of antithrombin added prior to the addition of the substrate.

A further assay deals with T2, factor XIa (Homo sapiens, UniProt P03951).
T2 construct: antithrombin, factor Xa and factor XIa were from Haematologic Technologies; purchased Haematologic Technologies (Essex Junction, VT); host or cells: human plasma
T2 sequence (P03951 388-625 limits assumed): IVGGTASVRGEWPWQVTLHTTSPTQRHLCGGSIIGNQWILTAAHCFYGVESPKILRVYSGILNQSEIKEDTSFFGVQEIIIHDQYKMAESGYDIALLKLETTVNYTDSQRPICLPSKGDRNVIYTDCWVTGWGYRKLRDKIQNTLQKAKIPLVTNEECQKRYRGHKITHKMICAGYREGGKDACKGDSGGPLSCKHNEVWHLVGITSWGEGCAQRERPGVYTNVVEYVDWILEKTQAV
T2 sequence (P03951 19-387 limits assumed): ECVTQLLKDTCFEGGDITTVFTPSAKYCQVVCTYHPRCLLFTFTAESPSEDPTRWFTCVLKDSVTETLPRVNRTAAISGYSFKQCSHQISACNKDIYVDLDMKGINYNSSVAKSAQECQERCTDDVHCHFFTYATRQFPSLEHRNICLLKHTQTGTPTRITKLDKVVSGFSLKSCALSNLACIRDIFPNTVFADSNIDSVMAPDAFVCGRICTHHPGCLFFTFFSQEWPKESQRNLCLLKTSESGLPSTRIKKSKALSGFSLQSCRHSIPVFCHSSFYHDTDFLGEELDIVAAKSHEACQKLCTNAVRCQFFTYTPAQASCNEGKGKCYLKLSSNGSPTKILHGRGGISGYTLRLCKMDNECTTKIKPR
In words: Chromogenic substrate hydrolysis assay, factor XIa inhibition (S-2366). In kind it is biochemical. The protocol: For factor XIa inhibition studies, 85 μL of buffer (50 mM Tris-HCl, 150 mM NaCl, 0.1% PEG 8000, 0.02% Tween 80, pH 7.4) was added to each well, followed by 7 μL of 15.3 nM enzyme and 3 μL of sulfated coumarin (3.75–500 μM final concentration) and incubated for 10 min at 37 °C. After the incubation period, 5 μL of 6.9 mM S-2366 was added to each well simultaneously and allowed to react for 300 sec at 37 °C. For factor Xa assay, 180 μL of buffer (20 mM Tris-HCl, 100 mM NaCl, 2.5 mM CaCl2, 0.1% PEG 8000, 0.02% Tween 80, pH 7.4) was added to each well followed by 5 μL of 43.5 nM enzyme, 10 μL of sulfated coumarin (0.002–250 μM final concentration). After a 10 min incubation, 5 μL of 5 mM Spectrozyme FXa was added to each well simultaneously and allowed to react for 300 seconds at 37 °C. The slopes generated from each experiment were used to calculate the fractional residual activity (Y) at each concentration of the inhibitor, and analyzed using logistic equation 1, in which YM is the maximum efficacy, Y0 is minimum efficacy and HS is the Hill slope.

In a further assay the target is T3, thrombin mutant R126A (Homo sapiens, UniProt P00734, R486A).
T3 construct: a group of thrombin mutants containing replacement of either Arg or Lys present in exosite 2 to Ala
The experiment in a line: Inhibition of thrombin mutant R126A. The class given is biochemical. Conditions: pH 7.4, 25 °C. On the procedure:
as §1

In another assay the target is T4, thrombin mutant K236A (Homo sapiens, UniProt P00734, K611A).
T4 construct: a group of thrombin mutants containing replacement of either Arg or Lys present in exosite 2 to Ala
The experiment in a line: Inhibition of thrombin mutant K236A. The class given is biochemical. The following applies: pH 7.4, 25 °C. On the procedure:
as §1

A further assay deals with thrombin (Homo sapiens, UniProt P00734). In words: Antithrombin inactivation of thrombin in the presence of sulfated coumarin. In kind it is biochemical. Set-up: 6 nM plasma α-thrombin; purchased Haematologic Technologies (Essex Junction, VT); host or cells: human plasma. On the procedure: The effect of 3g on the reaction of thrombin (or factor Xa) with antithrombin was studied under pseudo-first order conditions such that [AT]0 ≫ [T]0. A fixed concentration of 6 nM plasma α-thrombin in 20 mM Tris-HCl buffer, pH 7.2, containing 100 mM NaCl, 2.5 mM CaCl2 and 0.1% PEG 8000 at 25 °C was incubated for 128 min with final concentrations of 0, 75, 225, or 675 nM of 3g following which a fixed concentration of 100 nM of antithrombin was added and the reaction allowed to proceed. […] The initial rate of hydrolysis of the Spectrozymes were monitored from the linear increase in A405. The fractional residual enzyme activity at each time point was calculated from the slope, i.e., thrombin activity, measured at the start of the experiment and fitted by the standard exponential decay equation 6 to calculate the observed pseudo-first order rate constant, kOBS, at each concentration of 3g. The intrinsic second-order rate constant of antithrombin inhibition of thrombin (kINT) was calculated using equation 7 and plotted against the concentration of thrombin–3g complex, obtained from quadratic equation 8, to derive the kINT of antithrombin inhibition of thrombin–3g complex.

Assay [1] deals with T5, fluorescein-labeled (f FPRCK-) thrombin (Homo sapiens, UniProt P00734).
T5 construct: fluorescein-labeled (f FPRCK-) human thrombin; purchased Haematologic Technologies (Essex Junction, VT); host or cells: human plasma
In words: Thermodynamic affinity by fluorescence titration. In kind it is binding. The protocol: Affinity studies were performed in triplicate and conducted using quartz cuvettes. 180 μL of buffer (20 mM Tris-HCl, 100 mM NaCl, 2.5 mM CaCl2, 0.1% PEG 8000, pH 7.4) and 20 μL of 2 μM fluorescein-labeled (f FPRCK-) thrombin were added to the cuvette followed by titration with 1 μL additions of 3g. Fluorescence intensities were monitored by excitation at 490 nm and emission at 525 nm using slit widths of 0.5 mm. The KD of 3g–thrombin complex was calculated using the quadratic binding equation (equation 4) in which ∆F is the change in fluorescence from the formation of the thrombin-ligand complex with each addition of 3g. F0 is the initial fluorescence and ∆FMAX represents the maximum observed change in fluorescence due to thrombin saturation ([Th]0).

Another assay addresses T6, thrombin mutant R175A (Homo sapiens, UniProt P00734, R543A).
T6 construct: a group of thrombin mutants containing replacement of either Arg or Lys present in exosite 2 to Ala
In words: Inhibition of thrombin mutant R175A. In kind it is biochemical. Conditions: pH 7.4, 25 °C. The protocol: as §1

Some results are limits rather than exact numbers.

In general, IC50 refers to the concentration needed to halve the response being measured. The Kd is the constant that tells how readily two partners part at equilibrium. High values mean a looser complex, low ones a tighter complex. Consider `O=c1oc2cc(OCCCCn3cc(COc4ccc(-c5c(-c6ccccc6)c6cc(Cl)cc(Cl)c6oc5=O)cc4)nn3)ccc2c(-c2ccccc2)c1-c1ccc(OS(=O)(=O)O)cc1` [3g], for which the “increase of inhibition potency in comparison to recombinant wild-type thrombin” value on thrombin mutant R93A (R93A mutant) came out at 2.3 fold. The HS on thrombin mutant R93A (R93A, pH 7.4, 25 °C) worked out at 1.3; at thrombin mutant R126A, 3.2; at thrombin mutant K236A it was 2.6; on thrombin mutant R175A it was 2.2. Also, the IC50 against thrombin mutant R93A (R93A, pH 7.4, 25 °C) was 154 ± 20 nM; on factor XIa (pH 7.4, 37 °C, read-out: IC50 against factor XIa), over 30000 nM; on thrombin mutant R126A it was 308 ± 30 nM; against thrombin mutant K236A, 525 ± 70 nM; on thrombin mutant R175A it was 409 ± 80 nM. Further, the ΔY stood at 51 ± 2% on thrombin mutant R93A (R93A, pH 7.4, 25 °C); 41 ± 2% at thrombin mutant R126A; 64 ± 4% at thrombin mutant K236A; 42 ± 5% at thrombin mutant R175A. Further, on factor XIa, the “selectivity for thrombin in comparison to factor XIa” value was ~ 150 fold. In addition, the “kINT, second order rate constant of antithrombin inhibition of thrombin–3g complex” value on thrombin (at 100% saturation of thrombin, pH 7.2, 25 °C, thrombin alone 2476 ± 228) is 821 ± 198 M⁻¹ s⁻¹. Besides, at thrombin (kINT in the absence of 3g equated with 100%), the “proteolytic activity of thrombin–3g complex” value is 33 ± 12%. Besides, the ΔFMAX in assay [1] (loss in fluorescence at saturation) is recorded as ~ 28%. This compound showed a Kd in assay [1] (pH 7.4, λEX 490 nm, λEM 525 nm, quadratic binding equation) of 143 ± 14 nM.

Source of the values: article PMC4823711, “Allosteric Partial Inhibition of Monomeric Proteases. Sulfated Coumarins Induce Regulation, not just Inhibition, of Thrombin” (Scientific Reports, 2016).
